# From PubChem BioAssay (NCI)
#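 Following 48 hours of exposure in 96-well plates, responses at five concentrations were used to interpolate endpoints linearly. TGI: concentration producing complete growth inhibition.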
# Tests used:
# Test in all cases: NCI tumour cell line growth inhibition, 48 h
# ACHN renal = test system: ACHN renal
# SF-295 CNS = test system: SF-295 CNS
# UO-31 renal = test system: UO-31 renal
# U251 CNS = test system: U251 CNS
# MALME-3M melanoma = test system: MALME-3M melanoma
# HS 578T breast = test system: HS 578T breast
# SR leukemia = test system: SR leukemia
# OVCAR-4 ovarian = test system: OVCAR-4 ovarian
# RXF 393 renal = test system: RXF 393 renal
# COLO 205 colon = test system: COLO 205 colon
# HCC-2998 colon = test system: HCC-2998 colon
# A549 NSCLC = test system: A549 NSCLC
# HOP-62 NSCLC = test system: HOP-62 NSCLC
# SK-MEL-5 melanoma = test system: SK-MEL-5 melanoma
# CCRF-CEM leukemia = test system: CCRF-CEM leukemia
# KM12 colon = test system: KM12 colon
# NCI-H460 lung = test system: NCI-H460 lung
# LOX IMVI melanoma = test system: LOX IMVI melanoma
# NCI-H522 lung = test system: NCI-H522 lung
# HCT-116 colon = test system: HCT-116 colon
# M14 melanoma = test system: M14 melanoma
# SK-MEL-2 melanoma = test system: SK-MEL-2 melanoma
# IGROV1 ovarian = test system: IGROV1 ovarian
# T-47D breast = test system: T-47D breast
# 786-0 renal = test system: 786-0 renal
# BT-549 breast = test system: BT-549 breast
# UACC-62 melanoma = test system: UACC-62 melanoma
# SK-OV-3 ovarian = test system: SK-OV-3 ovarian
# HCT-15 colon = test system: HCT-15 colon
# SN12C renal = test system: SN12C renal
# MDA-MB-435 = test system: MDA-MB-435
# MDA-MB-231 breast = test system: MDA-MB-231 breast
# SW-620 colon = test system: SW-620 colon
# K-562 leukemia = test system: K-562 leukemia
# EKVX NSCLC = test system: EKVX NSCLC
# HT29 colon = test system: HT29 colon
# PC-3 prostate = test system: PC-3 prostate
# MCF7 breast = test system: MCF7 breast
# NCI-H23 lung = test system: NCI-H23 lung
# UACC-257 melanoma = test system: UACC-257 melanoma
# CAKI-1 renal = test system: CAKI-1 renal
# SNB-19 CNS = test system: SNB-19 CNS
# A498 renal = test system: A498 renal
# MDA-N = test system: MDA-N
# SF-539 CNS = test system: SF-539 CNS
# NCI/ADR-RES ovarian = test system: NCI/ADR-RES ovarian
# NCI-H226 lung = test system: NCI-H226 lung
# SK-MEL-28 melanoma = test system: SK-MEL-28 melanoma
# HL-60(TB) leukemia = test system: HL-60(TB) leukemia
# SNB-75 CNS = test system: SNB-75 CNS
# OVCAR-8 ovarian = test system: OVCAR-8 ovarian
# TK-10 renal = test system: TK-10 renal
# OVCAR-5 ovarian = test system: OVCAR-5 ovarian
# SF-268 CNS = test system: SF-268 CNS
# MOLT-4 leukemia = test system: MOLT-4 leukemia
# RPMI-8226 leukemia = test system: RPMI-8226 leukemia
compound,measurement,setting,value
CN(C)CCn1nc2c3c(c(C(=O)NCCCN(C)CCCNC(=O)c4ccc5c6c(nn5CCN(C)C)-c5ccccc5Nc46)ccc31)Nc1ccccc1-2,TGI,ACHN renal,6.26 µM
same,TGI,SF-295 CNS,2080 nM
same,TGI,UO-31 renal,3.22 µM
same,TGI,U251 CNS,452 nM
same,TGI,MALME-3M melanoma,280 nM
same,TGI,HS 578T breast,1860 nM
same,TGI,SR leukemia,1200 nM
same,TGI,OVCAR-4 ovarian,658 nM
same,TGI,RXF 393 renal,1450 nM
same,TGI,COLO 205 colon,227 nM
same,TGI,HCC-2998 colon,245 nM
same,TGI,A549 NSCLC,332 nM
same,TGI,HOP-62 NSCLC,574 nM
same,TGI,SK-MEL-5 melanoma,1460 nM
same,TGI,CCRF-CEM leukemia,2630 nM
same,TGI,KM12 colon,1330 nM
same,TGI,NCI-H460 lung,432 nM
same,TGI,LOX IMVI melanoma,1280 nM
same,TGI,NCI-H522 lung,117 nM
same,TGI,HCT-116 colon,525 nM
same,TGI,M14 melanoma,1580 nM
same,TGI,SK-MEL-2 melanoma,243 nM
same,TGI,IGROV1 ovarian,15.6 µM
same,TGI,T-47D breast,10.5 µM
same,TGI,786-0 renal,1280 nM
same,TGI,BT-549 breast,1650 nM
same,TGI,UACC-62 melanoma,424 nM
same,TGI,SK-OV-3 ovarian,407 nM
same,TGI,HCT-15 colon,16.6 µM
same,TGI,SN12C renal,708 nM
same,TGI,MDA-MB-435,415 nM
same,TGI,MDA-MB-231 breast,518 nM
same,TGI,SW-620 colon,3.49 µM
same,TGI,K-562 leukemia,1890 nM
same,TGI,EKVX NSCLC,505 nM
same,TGI,HT29 colon,561 nM
same,TGI,PC-3 prostate,834 nM
same,TGI,MCF7 breast,582 nM
same,TGI,NCI-H23 lung,617 nM
same,TGI,UACC-257 melanoma,1090 nM
same,TGI,CAKI-1 renal,3.3 µM
same,TGI,SNB-19 CNS,748 nM
same,TGI,A498 renal,623 nM
same,TGI,MDA-N,318 nM
same,TGI,SF-539 CNS,2190 nM
same,TGI,NCI/ADR-RES ovarian,> 71.2 µM
same,TGI,NCI-H226 lung,217 nM
same,TGI,SK-MEL-28 melanoma,1150 nM
same,TGI,HL-60(TB) leukemia,944 nM
same,TGI,SNB-75 CNS,272 nM
same,TGI,OVCAR-8 ovarian,2970 nM
same,TGI,TK-10 renal,3.32 µM
same,TGI,OVCAR-5 ovarian,751 nM
same,TGI,SF-268 CNS,549 nM
same,TGI,MOLT-4 leukemia,1580 nM
same,TGI,RPMI-8226 leukemia,1370 nM
